Results reported in patent US20240294509A1, “PYRIDAZINONE COMPOUND AS PARP7 INHIBITOR” (Euregen Biopharma Co., Ltd., priority 2021, published 2024).

Experiments:
[1] = system: NCI-H1373 cells; assay: Inhibitory effect on the proliferation of NCI-H1373 cells (CellTiter-Glo); format: cell-based; settings: Homo sapiens, 144 h, 6 days treatment
Source text: 1. Experimental Principle: NCI-H1373 cells are a type of lung adenocarcinoma cells that overexpress PARP7.
2. Experimental Materials: NCI-H1373 cells were obtained from Nanjing Cobioer Biosciences Co., Ltd. CellTiter-Glo® (cell viability chemiluminescent assay reagent) was purchased from Promega (Catalog No. G7571). RPMI-1640 medium was obtained from ATCC (Catalog No. 30-2001). RPMI-1640 medium, penicillin/streptomycin antibiotics were purchased from WISENT. Fetal bovine serum was obtained from Biosera. The Nivo multimode reader was procured from PerkinElmer.
3. Experimental Method: NCI-H1373 cells were seeded in a white 96-well plate with 80 μL of cell suspension per well, containing 3000 NCI-H1373 cells. The cell plate was incubated overnight in a carbon dioxide (CO2) incubator.
The test compounds were serially diluted 5-fold to the 9th concentration, ranging from 2 mmol/L to 5.12 nmol/L, for a duplicate assay. 78 μL of culture medium was added to the intermediate plate, and then, according to the corresponding positions, 2 μL of each gradient-diluted compound was transferred to the intermediate plate. After thorough mixing, 20 μL of the compound solution was transferred to the cell plate. The compound concentration range in the cell plate ranged from 10 μmol/L to 0.0256 nmol/L. The cell plate was incubated in a CO2 incubator for 6 days.
Another cell plate was prepared, and the signal values were read on the day of dosing to obtain the maximum value referred to as Max in the following equation for data analysis. 25 μL of cell viability chemiluminescent assay reagent was added to each well of this cell plate, and it was incubated at room temperature for 10 minutes to stabilize the luminescent signal. Readings were taken using a multimode reader.
After 6 days of treatment, 25 μL of cell viability chemiluminescent assay reagent was added to each well of the cell plate, and it was incubated at room temperature for 10 minutes to stabilize the luminescent signal. Readings were taken using a multimode reader.
The IC50 value was determined by four-parameter curve fitting (obtained by using the “log(inhibitor) vs. response—Variable slope” model in GraphPad Prism).

[2] = Pharmacokinetic properties in SD rats after single intravenous injection and oral administration; format: in vivo; settings: SD male rats
Source text: 1. Test purpose: to determine the pharmacokinetic characteristics of some of the example compound of the present invention in SD rats after single intravenous injection(IV) and oral administration(PO) by LC-MS/MS method.
2. Test material: the test drug is self-made from the example compounds of the present invention; Positive control compound RBN2397 purchased from Shanghai BioChemPartner Biotechnology Co., Ltd. SD male rats were obtained from the Laboratory Animal Management Department of Shanghai Family Planning Research Institute. Animal production license number (SCXK (Shanghai) 2018-0006).
Preparation of 0.5% methyl cellulose: 5 g of methyl cellulose were weighed and dissolved in 1000 mL of purified water.
Preparation of oral formulation: A required amount of test compound was weighed and dissolved in 0.5% methyl cellulose solution to obtain a suspension or solution of 0.5 mg/mL or 1.0 mg/mL.
Preparation of intravenous injection formulation: A required amount of test compound was weighed, and dissolved in 0.5 mL of dimethyl sulfoxide to prepare a solution of 4 mg/mL. 0.25 mL of the above solution was added into 0.5 mL of polyethylene glycol 15 hydroxystearate (solutol) and 4.25 mL of physiological saline to obtain a solution of 0.2 mg/mL.
Administration: SD male rats were orally administered (PO) after fasting overnight, and fed 4 hours after administration.
Sample Collection: blood was collected through jugular vein or other suitable vein, and 0.2 mL of blood was collected at each time point. Samples were placed into tubes containing ethylenediamine tetraacetic acid dipotassium salt and kept on ice before centrifugation. Within 1 hour after blood collection, the blood samples were centrifuged at 2-8° C. and 6800 g for 6 minutes and stored at −80° C. The time point for blood collection was 0.083, 0.25, 0.5, 1, 2, 4, 8 and 24 hours after intravenous administration, and 0.25, 0.5, 1, 2, 4, 6, 8 and 24 hours after oral administration.
The intravenous dosage was 1 mg/kg, and the pharmacokinetic parameters for oral administration were standardized to a 1 mg/kg dose.

[3] = biological target: PARP7 (Homo sapiens (Human), UniProt Q7Z3E1); assay: biochemical
Experimental: (§1) Experimental Principle: The inhibitory effect of the test substance on the enzymatic activity of PARP1/7 is assessed by using an Enzyme-Linked Immunosorbent Assay (ELISA).
(§2) (1) Pre-coating: Add 100 μL of a PBS buffer (10 mM NaH2PO4, 10 mM Na2HPO4, 150 mM NaCl, pH 7.4) containing 20 g/mL of histone to each well of a 96-well plate, and incubate at 4° C. overnight.
(§3) (3) Add 5 μL of the test substance or solvent to each well.
(§4) (4) Add 20 μL of(PARP1 or PARP7 (50 ng/well), and incubate at 30° C. for 1 hour.
(§5) (5) Add 50 μL of streptavidin-HRP to the reaction mixture, and incubate at 30° C. for 30 minutes.
(§6) (6) Finally, add 100 μL of a citrate buffer containing H2O2 and luminol (0.1 M, pH 5.4), and measure the luminescent signal using a microplate reader (Molecular Devices SpectraMax M5).
(§7) (7) Calculate the inhibition rate of PARP1 or PARP7 enzyme activity as [(control group−treatment group)/control group]×10000. Fit the dose-response data with standard dilutions using Prism GraphPad software and calculate the concentration required to achieve 5000 inhibition of PARP1 or PARP7 enzyme activity (IC50).

[4] = biological target: PARP1 (Homo sapiens (Human), UniProt P09874); assay: biochemical
Experimental: as §1, §2, §3, §4, §5, §6, §7

[5] = rat, plasma, Intravenous injection, 1 mg/kg
[6] = rat, plasma, Oral gavage, standardized to a 1 mg/kg dose

Sequence of PARP1 (P09874 whole entry): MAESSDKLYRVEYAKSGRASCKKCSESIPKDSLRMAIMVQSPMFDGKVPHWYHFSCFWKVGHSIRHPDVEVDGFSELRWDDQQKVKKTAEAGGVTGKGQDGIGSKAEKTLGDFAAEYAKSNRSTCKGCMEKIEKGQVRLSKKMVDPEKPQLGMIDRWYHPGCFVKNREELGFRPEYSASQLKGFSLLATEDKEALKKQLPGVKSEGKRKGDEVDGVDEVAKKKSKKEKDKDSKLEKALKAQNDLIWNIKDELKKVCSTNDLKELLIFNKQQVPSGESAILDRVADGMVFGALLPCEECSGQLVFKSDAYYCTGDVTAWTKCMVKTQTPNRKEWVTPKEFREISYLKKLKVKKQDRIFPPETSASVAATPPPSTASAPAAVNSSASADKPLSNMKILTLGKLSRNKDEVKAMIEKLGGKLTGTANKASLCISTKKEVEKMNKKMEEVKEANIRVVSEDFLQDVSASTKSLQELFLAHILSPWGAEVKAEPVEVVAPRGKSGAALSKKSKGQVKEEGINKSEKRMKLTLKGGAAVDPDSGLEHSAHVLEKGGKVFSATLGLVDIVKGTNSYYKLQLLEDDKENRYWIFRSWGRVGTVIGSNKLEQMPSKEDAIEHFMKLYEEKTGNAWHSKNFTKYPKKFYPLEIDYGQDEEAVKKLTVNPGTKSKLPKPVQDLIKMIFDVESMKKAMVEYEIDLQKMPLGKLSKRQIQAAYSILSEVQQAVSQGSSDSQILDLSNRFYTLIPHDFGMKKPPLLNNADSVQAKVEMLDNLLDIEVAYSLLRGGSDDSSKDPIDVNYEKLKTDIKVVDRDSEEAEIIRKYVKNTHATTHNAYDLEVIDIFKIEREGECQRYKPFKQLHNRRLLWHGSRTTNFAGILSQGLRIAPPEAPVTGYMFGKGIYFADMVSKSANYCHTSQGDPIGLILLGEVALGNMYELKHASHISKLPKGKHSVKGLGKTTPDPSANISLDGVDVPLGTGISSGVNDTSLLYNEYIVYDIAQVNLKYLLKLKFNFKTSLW
Sequence of PARP7 (Q7Z3E1 whole entry): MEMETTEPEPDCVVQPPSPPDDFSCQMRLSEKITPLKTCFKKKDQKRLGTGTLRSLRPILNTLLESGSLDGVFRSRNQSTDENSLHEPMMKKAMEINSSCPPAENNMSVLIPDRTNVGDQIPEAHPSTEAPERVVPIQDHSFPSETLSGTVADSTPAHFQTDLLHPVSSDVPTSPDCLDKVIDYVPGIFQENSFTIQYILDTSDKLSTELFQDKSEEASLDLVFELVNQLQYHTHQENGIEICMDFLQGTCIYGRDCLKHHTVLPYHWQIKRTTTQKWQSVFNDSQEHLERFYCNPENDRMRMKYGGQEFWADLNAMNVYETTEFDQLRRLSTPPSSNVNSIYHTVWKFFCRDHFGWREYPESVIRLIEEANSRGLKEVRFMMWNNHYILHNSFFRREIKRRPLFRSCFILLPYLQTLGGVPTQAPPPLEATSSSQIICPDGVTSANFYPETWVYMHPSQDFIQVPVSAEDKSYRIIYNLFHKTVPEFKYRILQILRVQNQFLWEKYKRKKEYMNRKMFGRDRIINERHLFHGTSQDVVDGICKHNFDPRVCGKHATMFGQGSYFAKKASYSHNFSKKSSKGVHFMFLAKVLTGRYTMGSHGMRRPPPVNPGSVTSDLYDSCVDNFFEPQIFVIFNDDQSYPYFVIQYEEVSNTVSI

IC50 [1]: 73.6 nM
F ([2]; Oral gavage, oral bioavailability): 21.18%
AUC(0-inf) [2, 5]: 482 ng·h/mL
Cmax [2, 5]: 1210 ng/mL
clearance [2, 5]: 36.9 mL/min/kg
half-life [2, 5]: 30.6 min
AUC(0-inf) [2, 6]: 111 ng·h/mL
Cmax [2, 6]: 40.2 ng/mL
IC50 [3]: 3.4 nM
IC50 [4]: 816 nM
SMILES: O=C(CC[C@@H]1C[C@@H](Oc2ccccc2)CN1c1cc(C(F)(F)F)c(=O)[nH]n1)N1CCN(c2ncc(C(F)(F)F)cn2)CC1 [Compound 21]
